From patent publication US20130059894A1, “PESTICIDAL COMPOSITION AND ITS USE” (SUMITOMO CHEMICAL COMPANY, LIMITED, priority 2010, published 2013)

System: Rhizoctonia solani
Assay: Soybean seed treatment test against disease caused by Rhizoctonia solani in contaminated soil
Assay type: in vivo, Rhizoctonia solani on soybean (variety: Natto shoryu)
Settings: seed treatment of soybean; carboxamide compound 0.2 g/100 kg of seeds alone (no sulfoxaflor); cultivated 20 days in soil contaminated by Rhizoctonia solani
Description: A cyclohexanone solution (100 microL) containing prescribed amount (weight) of a test compound was applied on seeds of soybean (variety: Natto shoryu) (10 g) by using a rotary apparatus for seed treatment (Seed dresser, manufactured by Hans-Ulrich Hege GmbH). One day after the application, plastic pot was filled with soil contaminated by Rhizoctonia solani, and the seeds treated with the test compounds were seeded in the soil and cultivated in a glass-greenhouse for 20 days (hereinafter referred to as “treated plot”). Thereafter, the presence of disease caused by Rhizoctonia solani in the young plants which germinated from each seed was observed and disease severity was calculated according to the following calculation formula (1). On the other hand, seeds of soybean which are not treated as above were cultivated in the same way as above (hereinafter referred to as “non-treated plot”) and the disease severity in the “non-treated plot” was calculated in the same way as the above “treated plot”. On the basis of the above severity in “treated plot” and “non-treated plot”, efficacy in “treated plot” was evaluated according to the following calculation formula (2). […]

In the case of `Cc1nn(C)c(C)c1C(=O)Nc1cccc2c1C(C)CC2(C)C` (stereo not shown) [carboxamide compound (5)], the “efficacy (%)” value is reported as 15.8%.
